Marks after values point to notes of the source that are not given here. Values belong to the compound of their own block, whether it stands above or below them.
How the values were obtained:
[1] = system: hyperglycemia KK-A^y mice; test: blood sugar of hyperglycemia KK-A^y mice; assay type: in vivo; parameters: blood sugar: unit not given here; conditions: metformin 8 g/kg, group 11
Experimental: (§1) Materials: accurately weigh the 2 compounds S13 and S28 discussed in example 2, and then add 0.5% CMC-Na to make the solution of 5 mg/ml used for activity test. KK-A^y mice are purchased from Chinese Academy of Medical Sciences & Peking Union Medical College Institute of Animal Studies. Experiments are carried out after adapting to the environment (T=20-24° C., constant humidity: 50-60%, 12 hours light exposure (8:00-20:00), soundproof, free feeding and drinking) for 1 week. Glucometer is purchased from Roche.
(§2) Methods: 10 male C57 mice of 6-8 weeks of 20-22 g are used as normal control group (1). Detect the fasting glucose of male KK-A^y mice, which are 6-8 weeks with the weight of 28-32 g, and divide them into different groups according to the blood sugar level and body weight: (2) model control group, (3) which is administered by compound S13 with the dose of 1 mg/kg, (4) which is administered by compound S13 with the dose of 5 mg/kg, (5) which is administered by compound S13 with the dose of 10 mg/kg, (6) which is administered by compound S13 with the dose of 20 mg/kg, (7) which is administered by compound S28 with the dose of 1 mg/kg, (8) which is administered by compound S28 with the dose of 5 mg/kg, (9) which is administered by compound S28 with the dose of 10 mg/kg, (10) which is administered by compound S28 with the dose of 20 mg/kg, (11) which is administered by metformin with the dose of 8 g/kg, (12) which is administered by compound S13 with the dose of 2.5 mg/kg and metformin with the dose of 4 g/kg, (13) which is administered by compound S13 with the dose of 5 mg/kg and metformin with the dose of 4 g/kg, (14) which is administered by compound S28 with the dose of 2.5 mg/kg and metformin with the dose of […], (15) which is administered by compound S28 with the dose of 5 mg/kg and metformin with the dose of […]. Each group has 8 mice, and is administrated successively for 3 weeks. Model control group is given with equal amounts of 0.5% CMC-Na.
1) Effects of drugs on blood sugar: at the first day after administration, the mice are fasted for 2 hours and blood is collected (0 h) to detect the fasting blood sugar. After the compound is given to the mice by intragastric administration for 30 min, blood is collected from tip of tail to detect the blood sugar level.
(§3) 2) Effects on body weight and blood sugar: the body weight of mice are recorded at the 2th, 5th, 8th, 11th, 14th, 17th, 20th day after administration, and blood is collected from tip of tail to detect the blood sugar level (see table 10).

[2] = body weight of hyperglycemia KK-A^y mice; assay type: in vivo; conditions: metformin 8 g/kg, group 11
Experimental: as §1, §2, §3

[3] = system: hyperglycemia KK-A^y mice; test: glucose tolerance test (OGTT) in hyperglycemia KK-A^y mice; assay type: in vivo; conditions: OGTT 12th day, glucose 2.0 g/kg oral, metformin 8 g/kg, group 11
Experimental: as §1, with “KK-A^y” for “Materials: accurately weigh the 2 compounds S13 and S28 discussed in example 2, and then add 0.5% CMC-Na to make the solution of 5 mg/ml used for activity test. KK-A^y”
Each group has 8 mice, and is administrated successively for 3 weeks. Model control group is given with equal amounts of 0.5% CMC-Na.
3) Glucose tolerance test (OGTT): glucose tolerance is detected at the 12th day after administration. The mice are fasted for 12 hours and blood is collected (0 h). After being given with glucose (2.0 g/kg) by oral administration, blood is collected from tip of tail to detect the blood sugar level after 30 min, 60 min and 120 min respectively (see table 11).

[4] = system: hyperglycemia KK-A^y mice; test: blood lipid and liver function of hyperglycemia KK-A^y mice; assay type: in vivo; conditions: 3 weeks, metformin 8 g/kg, group 11
Experimental: as §1, §2
4) After the last administration, the mice are executed under anesthesia, and blood is taken to be centrifuged at 3000 rpm in 4[…]. Serum total cholesterol, low density lipoprotein and triglyceride TG are detected.

α-glucosidase = target: T1, α-glucosidase (Saccharomyces cerevisiae, UniProt P53341); test: α-glucosidase inhibitory activity test in vitro; assay type: biochemical; conditions: read-out: α-glucosidase inhibitory activity (IC50)
T1 construct: purchased Sigma Corporation G5003
T1 sequence (P53341 whole entry): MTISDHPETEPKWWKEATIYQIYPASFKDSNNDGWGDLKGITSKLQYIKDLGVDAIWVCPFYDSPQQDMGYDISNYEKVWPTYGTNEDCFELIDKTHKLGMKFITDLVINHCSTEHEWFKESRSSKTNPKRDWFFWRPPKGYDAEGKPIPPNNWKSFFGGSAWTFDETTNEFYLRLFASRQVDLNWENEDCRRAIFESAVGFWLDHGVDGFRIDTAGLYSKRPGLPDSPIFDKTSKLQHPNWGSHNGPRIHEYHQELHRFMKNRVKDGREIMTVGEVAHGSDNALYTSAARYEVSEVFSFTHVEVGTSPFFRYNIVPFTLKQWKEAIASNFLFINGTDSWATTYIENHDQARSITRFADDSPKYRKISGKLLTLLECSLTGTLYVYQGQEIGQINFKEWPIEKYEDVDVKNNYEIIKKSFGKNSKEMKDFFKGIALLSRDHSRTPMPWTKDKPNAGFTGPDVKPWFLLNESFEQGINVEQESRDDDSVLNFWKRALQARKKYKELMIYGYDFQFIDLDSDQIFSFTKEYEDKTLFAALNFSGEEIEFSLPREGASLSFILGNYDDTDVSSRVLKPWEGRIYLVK
Experimental: Add 25 μL α-glucosidase water solution (0.2 U/mL) and 175 μL phosphate buffer (50 mM, pH 7.0) into 25 μL different concentration of the above test solutions. The mixed solution is standed for 10 min at room temperature, and then 25 μL 4-nitrophenyl-α-D-glucopyranoside water solution (2.5 mM) is added into the mixed solution. After the solution is incubated at 37 °C for 30 min and centrifuged at 5000 rpm for 5 minutes, 150 uL supernatant is added into 96-well plates and the absorbance is detected at 405 nm.
Blank group: the test solution is replaced by 25 μL phosphate buffer (50 mM, pH 7.0); blank control group: the test solution is replaced by 25 μL phosphate buffer (50 mM, pH 7.0), meanwhile α-glucosidase water solution is replaced by 25 μL phosphate buffer (50 mM, pH 7.0); sample control group: α-glucosidase water solution is replaced by 25 μL phosphate buffer (50 mM, pH 7.0).
(§4) Repeat each of the above experiment groups for 3 times, and then average the results.
IC50=[CL(IH−50)+CH(50−IL)]/(IH−IL) CL: low concentration value; CH: high concentration value; IH: inhibition rate in high concentration; IL: inhibition rate in low concentration

HMG-CoA reductase = target: T2, HMG-CoA reductase (Homo sapiens, UniProt P04035); test: HMG-CoA reductase inhibitory activity test in vitro; assay type: biochemical
T2 sequence (P04035 426-888 limits assumed): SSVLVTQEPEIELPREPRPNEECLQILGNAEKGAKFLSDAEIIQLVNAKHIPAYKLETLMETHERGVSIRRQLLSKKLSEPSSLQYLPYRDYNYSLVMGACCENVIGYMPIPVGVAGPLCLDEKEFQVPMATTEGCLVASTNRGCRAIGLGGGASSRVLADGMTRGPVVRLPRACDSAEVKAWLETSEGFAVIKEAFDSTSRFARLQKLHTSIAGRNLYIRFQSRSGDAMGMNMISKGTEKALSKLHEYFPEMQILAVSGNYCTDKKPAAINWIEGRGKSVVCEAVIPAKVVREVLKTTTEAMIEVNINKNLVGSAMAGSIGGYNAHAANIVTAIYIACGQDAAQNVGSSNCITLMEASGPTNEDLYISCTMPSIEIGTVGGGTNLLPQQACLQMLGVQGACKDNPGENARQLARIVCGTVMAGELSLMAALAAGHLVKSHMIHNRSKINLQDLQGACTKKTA
Experimental: Add 25 μL HMG-CoA reductase water solution (0.2 U/mL), 25 μL NADPH water solution (0.2 U/mL) and 24 μL phosphate buffer (50 mM, pH 7.0) into 1 μL different concentration of the above test solution. The mixed solution is standed for 10 min at room temperature, and then 25 μL HMG-CoA is added into the mixed solution. After the solution is incubated at 37∞ for 30 min and centrifuged at 5000 rpm for 5 minutes, 80 uL supernatant is added into 96-well plates and the absorbance is detected at 550 nm.
as §4

[5] = target: T3, protein tyrosine phosphatase 1B (PTP-1B) (Homo sapiens, UniProt P18031); test: PTP-1B inhibitory activity test in vitro; assay type: biochemical
T3 sequence (P18031 1-435): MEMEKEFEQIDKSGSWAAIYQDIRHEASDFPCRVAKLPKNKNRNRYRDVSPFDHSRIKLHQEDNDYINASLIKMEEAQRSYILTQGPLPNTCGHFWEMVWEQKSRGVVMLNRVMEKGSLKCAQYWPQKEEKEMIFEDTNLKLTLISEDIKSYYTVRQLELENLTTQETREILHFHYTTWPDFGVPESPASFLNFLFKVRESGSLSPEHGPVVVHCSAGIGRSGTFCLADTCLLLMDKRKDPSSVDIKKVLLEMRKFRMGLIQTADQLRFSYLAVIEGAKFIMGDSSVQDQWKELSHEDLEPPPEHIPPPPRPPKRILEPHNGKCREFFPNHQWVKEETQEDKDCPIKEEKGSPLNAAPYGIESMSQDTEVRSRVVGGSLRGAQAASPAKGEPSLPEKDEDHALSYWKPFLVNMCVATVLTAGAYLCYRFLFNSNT
Experimental: Experimental procedure: the following reagents are added into 96-well plates in sequence and the mixture ratios of different groups are as followings: Test group: 50 μL compound solution+50 μL 170 μg/mL PTP-1B solution […] Blank group: 50 μL buffer solution+50 μL 170 μg/mL PTP-1B solution Background group: 50 μL compound solution+50 μL buffer solution After adding the reagents, the 96-well plate is […] for 10 min at room temperature to make the compound and the enzyme react completely. Add 50 μL 1 mM pNPP solution which is used as substrate and incubate the mixed solution at 37 °C for 30 min. Then add 50 μL 3M NaOH into each well of the plate to stop the reaction and the optical density is detected at […].

aldose reductase = aldose reductase (Homo sapiens, UniProt P15121); test: aldose reductase inhibitory activity test in vitro; assay type: biochemical
Experimental: Experimental procedure: the following reagents are added into 96-well plates in sequence and the mixture ratios of different groups are as followings:
Test group: 10 μL compound solution+25 μL (0.1 mM) NADPH solution+25 μL PBS buffer solution+15 μL aldose reductase diluent
Blank group: 25 μL (0.1 mM) NADPH solution+35 μL PBS buffer solution+15 μL aldose reductase diluent
Background group: 25 μL (0.1 mM) NADPH solution+60 μL PBS buffer solution+15 μL aldose reductase diluent
After adding the reagents, the 96-well plate is standed for 10 min at room temperature to make the compound and the enzyme react completely. Add 25 μL 10 mM D, L glyceraldehyde solution which is used as substrate into the groups except for background group, and incubate the solution at 37 °C for 30 min. Then detect the optical density of each well at 340 nm.

dipeptidyl peptidase-4 = target: T4, dipeptidyl peptidase-4 (Homo sapiens, UniProt P27487); test: dipeptidyl peptidase-4 inhibitory activity test in vitro (DPP-4 inhibitor screening kit); assay type: biochemical
T4 construct: purchased
T4 sequence (P27487 whole entry, species assumed): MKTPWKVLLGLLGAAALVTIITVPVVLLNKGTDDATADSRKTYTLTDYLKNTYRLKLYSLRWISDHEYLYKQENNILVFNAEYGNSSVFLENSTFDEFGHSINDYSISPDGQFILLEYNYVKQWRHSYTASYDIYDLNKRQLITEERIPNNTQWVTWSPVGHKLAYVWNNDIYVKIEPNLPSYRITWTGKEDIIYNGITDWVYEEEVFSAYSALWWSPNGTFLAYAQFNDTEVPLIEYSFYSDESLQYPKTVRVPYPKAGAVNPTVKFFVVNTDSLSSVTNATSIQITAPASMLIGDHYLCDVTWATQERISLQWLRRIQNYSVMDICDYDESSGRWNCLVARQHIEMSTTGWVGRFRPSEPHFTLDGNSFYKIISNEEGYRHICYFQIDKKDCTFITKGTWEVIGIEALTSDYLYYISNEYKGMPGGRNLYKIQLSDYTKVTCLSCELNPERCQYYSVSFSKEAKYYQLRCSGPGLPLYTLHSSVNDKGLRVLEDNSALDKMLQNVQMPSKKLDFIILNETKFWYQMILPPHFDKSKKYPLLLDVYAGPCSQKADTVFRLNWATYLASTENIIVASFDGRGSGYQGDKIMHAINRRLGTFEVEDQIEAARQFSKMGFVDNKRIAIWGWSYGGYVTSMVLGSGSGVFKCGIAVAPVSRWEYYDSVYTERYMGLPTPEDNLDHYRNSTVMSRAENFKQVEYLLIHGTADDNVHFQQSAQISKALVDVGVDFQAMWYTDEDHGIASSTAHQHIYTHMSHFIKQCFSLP
Text: The above compounds are detected by DPP-4 inhibitor screening kit.

[6] = system: hyperglycemia mice induced by alloxan; test: blood sugar of hyperglycemia mice induced by alloxan; assay type: in vivo, Kunming species mice
Experimental: Blood glucose determination kit (batch number 20140403) is purchased from Nanjing Jiancheng Bioengineering Institute. Methods: after being acclimatized for 1 week, 10 randomly selected Kunming species male mice of SPF level of 20±2 g are used as control group, while the other 50 mice are given alloxan to make model by intraperitoneal injection according to body weight 220 mg/kg.

SMILES: CN(C)C(=N)N=C(N)N [metformin, reference compound]
blood sugar at the 1st day, 0 ([1]; 1st day 0 h): 14.9
blood sugar at the 1st day, 30 min ([1]; 1st day 30 min after intragastric administration): 9.85
blood sugar ([1]; 2st day): 13.05
blood sugar ([1]; 5st day): 13.9
blood sugar ([1]; 8st day): 13.8
blood sugar ([1]; 11st day): 13.5
blood sugar ([1]; 14st day): 13.7
blood sugar ([1]; 17st day): 13.5
blood sugar ([1]; 20st day): 13.24
Body weight ([2]; 2st day): 30.7 g
Body weight ([2]; 5st day): 30.53 g
Body weight ([2]; 8st day): 30.8 g
Body weight ([2]; 11st day): 30.6 g
Body weight ([2]; 14st day): 30.7 g
Body weight ([2]; 17st day): 30.8 g
Body weight ([2]; 20st day): 30.5 g
glucose tolerance, blood sugar 0 min ([3]; 0 min): 6.5**
glucose tolerance, blood sugar 30 min ([3]; 30 min): 12.8**
glucose tolerance, blood sugar 60 min ([3]; 60 min): 10.47**
glucose tolerance, blood sugar 120 min ([3]; 120 min): 7.41**
ALT [4]: 89.6 U/L
AST [4]: 137.5 U/L
HDL-C [4]: 23.1 mg/dL
LDL-C [4]: 72 mg/dL
SOD [4]: 3.7 U/L
TC [4]: 176* mg/dL
TG [4]: 578 mg/dL

IC50 (α-glucosidase): 0.23 µM
IC50 (HMG-CoA reductase): 3.6 µM
IC50 [5]: 12.5 µM
IC50 (aldose reductase): 58.2 µM
IC50 (dipeptidyl peptidase-4): 12 µM
SMILES: CC(C)=CCC/C(C)=C/CCC1=C[C@@H](c2ccccc2)OC1=O [S16, (S,E)-3-(4,8-dimethylnona-3,7-dien-1-yl)-5-phenylfuran-2(5H)-one]
blood sugar after administration ([6]; 50 mg/kg intragastric, 10 days, fasted 10 hours): 6.12** mmol/L
blood sugar before administration ([6]; before administration): 15.25 mmol/L

From patent US10441562B2, “Aromatic farnesyl compound and application thereof” (INSTITUTE OF MICROBIOLOGY, CHINESE ACADEMY OF SCIENCES, priority 2015, dated 2019)
